Laboratory results taken from publication PMC2754045 (Biochemistry, 2009).

Assays:
mTR-GCCG [1] = conditions: for Activity lower than that of the wild type enzyme: Sec to Cys mutant versus WT, pH 7.0
mTR-GCCG [2] = type: biochemical, mouse; conditions: mTR-GCCG versus mTR-GCUG

Structure (SMILES)	IC50 increase on mutation of Sec to Cys (mTR-GCCG [2])	Activity lower than that of the wild type enzyme (mTR-GCCG [1])	further results
O=C(O)CCCC[C@@H]1CCSS1 [Lipoic Acid, lipoic acid]	–	–	Km increase in the Cys2 mutant (mTR-GCCG [1]; versus full-length WT enzyme): 2.3 fold
CC(=O)OC[C@H]1O[C@@H]([S-])[C@H](OC(C)=O)[C@@H](OC(C)=O)[C@@H]1OC(C)=O.CCP(CC)CC.[Au+] [auranofin]	4 fold	–	–
OC[C@H]1O[C@H]([S-])[C@H](O)[C@@H](O)[C@@H]1O.[Au+] [aurothioglucose]	1.7 fold	–	–
O=[Se]([O-])[O-].[Na+].[Na+] [selenite, sodium selenite]	–	~ 2 fold	–
N[C@@H](C[Se][Se]C[C@H](N)C(=O)O)C(=O)O [selenocystine]	–	3.7 fold	–
